Starred links: 1 amine or outer side, 2 acyl side, 3 side chain; linkers in the order of their positions; H or OH if unused. Positions of bridges follow the written chain, without caps; N, C: chain ends. Non-standard residues stand in square brackets, D forms with d. Residues, ends and D or L forms follow the SMILES beside them. Triazole bridges read from a SMILES are 1,4-linked. *: point of attachment. βGlcNAc = CC(=O)N[C@@H]1[C@@H](O)[C@H](O)[C@@H](CO)O[C@H]1*; Abu(4-yl) = O=C([C@H](CC[*:3])N[*:1])[*:2]; Dap(N3) = [N-]=[N+]=NC[C@H](N)C(=O)O; Pra = C#CC[C@H](N)C(=O)O; Dap = NC[C@H](N)C(=O)O
What was measured:
[1] = Ratio of test compound t1/2 to Brevinin-1BYa t1/2 for alpha chymotrypsin (unknown origin)-mediated proteolysis measured for 24 hrs; type: ADME; details: human
LNCaP C4-2B [2] = test: Anticancer activity against human LNCaP C4-2B cells assessed as cell growth inhibition by CCK8 assay; type: functional, cell-based
alpha chymotrypsin = test: Stability of the compound assessed as alpha chymotrypsin (unknown origin)-mediated proteolysis by measuring degradation half life measured for 24 hrs; type: ADME, Homo sapiens
[3] = Stability of the compound in aqueous DTT solution measured after 48 hrs; type: physicochemical; details: buffer
[4] = Hemolytic activity in rabbit erythrocytes assessed as hemoglobin release; type: ADME, cell-based, Oryctolagus cuniculus, Erythrocyte
A549 = test: Anticancer activity against human A549 cells assessed as cell growth inhibition by CCK8 assay; type: functional, cell-based
Huh-7 [5] = test: Anticancer activity against human Huh-7 cells assessed as cell growth inhibition by CCK8 assay; type: functional, cell-based
[6] = Stability of the compound in aqueous DTT solution assessed as degradation half life measured for 48 hrs; type: physicochemical
[7] = Helicity of the compound in TFE aqueous solution by CD spectroscopy; type: physicochemical; details: buffer
LNCaP C4-2B [8] = test: Potency index, ratio of Brevinin-1BYa IC50 to test compound IC50 for human LNCaP C4-2B cells by CCK8 assay; type: functional
Huh-7 [9] = test: Potency index, ratio of Brevinin-1BYa IC50 to test compound IC50 for human Huh-7 cells by CCK8 assay; type: functional
[10] = Helicity of the compound in TFE aqueous solution by CD spectroscopy relative to Brevinin-1BYa; type: physicochemical; details: buffer

For `CC[C@H](C)[C@H](NC(=O)[C@H](CC(C)C)NC(=O)[C@H](C)NC(=O)[C@H](CO)NC(=O)[C@H](CC(C)C)NC(=O)[C@H](C)NC(=O)[C@H](C)NC(=O)[C@H](CCCCN)NC(=O)[C@H](Cc1ccccc1)NC(=O)CNC(=O)[C@@H]1CCCN1C(=O)[C@H](CCCCN)NC(=O)[C@H](CC(C)C)NC(=O)[C@H](Cc1ccccc1)NC(=O)[C@@H]1CSSC[C@H](N)C(=O)N[C@@H](CCCCN)C(=O)N[C@@H](CCCCN)C(=O)N[C@@H]([C@@H](C)O[C@@H]2O[C@H](CO)[C@@H](O)[C@H](O)[C@H]2NC(C)=O)C(=O)N[C@@H](C(C)C)C(=O)N[C@@H](CC(C)C)C(=O)N1)C(=O)N1CCC[C@H]1C(=O)N[C@@H](CC(C)C)C(=O)N[C@@H](Cc1ccccc1)C(=O)O` (H-CKKT(βGlcNAc)VLCFLKPGFKAALSALIPLF-OH; disulfide 1-7), the Ratio [1] was 1.67, the IC50 (LNCaP C4-2B [2]) was 20.5 µM and the half-life (alpha chymotrypsin) was 4.33 h. The Stabilty [3] was “Unstable”, the HC50 [4] was greater than 100 µM and the IC50 (A549) was 20.9 µM. It also gave an IC50 (Huh-7 [5]) of 23.4 µM and a half-life [6] of 3.32 h.
`CC[C@H](C)[C@H](NC(=O)[C@H](CC(C)C)NC(=O)[C@H](C)NC(=O)[C@H](CO[C@@H]1O[C@H](CO)[C@@H](O)[C@H](O)[C@H]1NC(C)=O)NC(=O)[C@H](CC(C)C)NC(=O)[C@H](C)NC(=O)[C@H](C)NC(=O)[C@H](CCCCN)NC(=O)[C@H](Cc1ccccc1)NC(=O)CNC(=O)[C@@H]1CCCN1C(=O)[C@H](CCCCN)NC(=O)[C@H](CC(C)C)NC(=O)[C@H](Cc1ccccc1)NC(=O)[C@@H]1CSSC[C@H](N)C(=O)N[C@@H](CCCCN)C(=O)N[C@@H](CCCCN)C(=O)N[C@@H]([C@@H](C)O)C(=O)N[C@@H](C(C)C)C(=O)N[C@@H](CC(C)C)C(=O)N1)C(=O)N1CCC[C@H]1C(=O)N[C@@H](CC(C)C)C(=O)N[C@@H](Cc1ccccc1)C(=O)O` (H-CKKTVLCFLKPGFKAALS(βGlcNAc)ALIPLF-OH; disulfide 1-7) gave a Ratio [1] of 1.66, an IC50 (LNCaP C4-2B [2]) of 18.7 µM and a half-life (alpha chymotrypsin) of 4.32 h. The Stabilty [3] was “Unstable”, the HC50 [4] was greater than 100 µM and the IC50 (A549) was 32.6 µM. The IC50 (Huh-7 [5]) was 39.6 µM and the half-life [6] was 3.31 h.
In the case of `CC[C@H](C)[C@H](NC(=O)[C@H](CC(C)C)NC(=O)[C@H](C)NC(=O)[C@H](CO)NC(=O)[C@H](CC(C)C)NC(=O)[C@H](C)NC(=O)[C@H](C)NC(=O)[C@H](CCCCN)NC(=O)[C@H](Cc1ccccc1)NC(=O)CNC(=O)[C@@H]1CCCN1C(=O)[C@H](CCCCN)NC(=O)[C@H](CC(C)C)NC(=O)[C@H](Cc1ccccc1)NC(=O)[C@@H]1CSSC[C@H](N)C(=O)N[C@@H](CCCCN)C(=O)N[C@@H](CCCCN)C(=O)N[C@@H]([C@@H](C)O)C(=O)N[C@@H](C(C)C)C(=O)N[C@@H](CC(C)C)C(=O)N1)C(=O)N1CCC[C@H]1C(=O)N[C@@H](CC(C)C)C(=O)N[C@@H](Cc1ccccc1)C(=O)O` (H-CKKTVLCFLKPGFKAALSALIPLF-OH; disulfide 1-7), the IC50 (LNCaP C4-2B [2]) is reported as 14 µM, the half-life (alpha chymotrypsin) is reported as 1.62 h and the Stabilty [3] is reported as “Unstable”. The Activity [7] was 22.57%, the HC50 [4] was 94.4 µM and the IC50 (A549) was 9.24 µM. It also gave an IC50 (Huh-7 [5]) of 14.9 µM and a half-life [6] of 3.35 h.
In the case of `CC[C@H](C)[C@H](NC(=O)[C@H](CC(C)C)NC(=O)[C@H](C)NC(=O)[C@H](CO)NC(=O)[C@H](CC(C)C)NC(=O)[C@H](C)NC(=O)[C@H](C)NC(=O)[C@H](CCCCN)NC(=O)[C@H](Cc1ccccc1)NC(=O)CNC(=O)[C@@H]1CCCN1C(=O)[C@H](CCCCN)NC(=O)[C@H](CC(C)C)NC(=O)[C@H](Cc1ccccc1)NC(=O)[C@@H]1CCSC[C@H](N)C(=O)N[C@@H](CCCCN)C(=O)N[C@@H](CCCCN)C(=O)N[C@@H]([C@@H](C)O)C(=O)N[C@@H](C(C)C)C(=O)N[C@@H](CC(C)C)C(=O)N1)C(=O)N1CCC[C@H]1C(=O)N[C@@H](CC(C)C)C(=O)N[C@@H](Cc1ccccc1)C(=O)O` (H-CKKTVL[Abu(4-yl)]FLKPGFKAALSALIPLF-OH; thioether 1-7), the IC50 (LNCaP C4-2B [2]) is reported as 9.23 µM, the half-life (alpha chymotrypsin) is reported as 2.51 h and the Stabilty [3] is reported as “Stable”. The Activity [7] was 83.65%, the HC50 [4] was 70.4 µM and the IC50 (A549) was 11.2 µM. The “Ratio IC50” value (LNCaP C4-2B [8]) was 1.5, the “Ratio IC50” value (Huh-7 [9]) was 1.38 and the “fold change (FC)” value [10] was 2.7. For the same molecule, the IC50 (Huh-7 [5]) was 10.8 µM and the half-life [6] was greater than 12 h.
In the case of `CC[C@H](C)[C@H](NC(=O)[C@H](CC(C)C)NC(=O)[C@H](C)NC(=O)[C@H](CO)NC(=O)[C@H](CC(C)C)NC(=O)[C@H](C)NC(=O)[C@H](C)NC(=O)[C@H](CCCCN)NC(=O)[C@H](Cc1ccccc1)NC(=O)CNC(=O)[C@@H]1CCCN1C(=O)[C@H](CCCCN)NC(=O)[C@H](CC(C)C)NC(=O)[C@H](Cc1ccccc1)NC(=O)[C@@H]1CNC(=O)C[C@H](N)C(=O)N[C@@H](CCCCN)C(=O)N[C@@H](CCCCN)C(=O)N[C@@H]([C@@H](C)O)C(=O)N[C@@H](C(C)C)C(=O)N[C@@H](CC(C)C)C(=O)N1)C(=O)N1CCC[C@H]1C(=O)N[C@@H](CC(C)C)C(=O)N[C@@H](Cc1ccccc1)C(=O)O` (H-DKKTVL[Dap]FLKPGFKAALSALIPLF-OH; lactam 1-7), the IC50 (LNCaP C4-2B [2]) is reported as 16.8 µM, the half-life (alpha chymotrypsin) is reported as 1.81 h and the Stabilty [3] is reported as “Stable”. For the same molecule, the Activity [7] was 26.34%, the HC50 [4] was greater than 100 µM and the IC50 (A549) was 17.1 µM. For the same molecule, the IC50 (Huh-7 [5]) was 16.6 µM and the half-life [6] was greater than 12 h.
For `CC[C@H](C)[C@H](NC(=O)[C@H](CC(C)C)NC(=O)[C@H](C)NC(=O)[C@H](CO)NC(=O)[C@H](CC(C)C)NC(=O)[C@H](C)NC(=O)[C@H](C)NC(=O)[C@H](CCCCN)NC(=O)[C@H](Cc1ccccc1)NC(=O)CNC(=O)[C@@H]1CCCN1C(=O)[C@H](CCCCN)NC(=O)[C@H](CC(C)C)NC(=O)[C@H](Cc1ccccc1)NC(=O)[C@@H]1Cn2cc(nn2)C[C@H](N)C(=O)N[C@@H](CCCCN)C(=O)N[C@@H](CCCCN)C(=O)N[C@@H]([C@@H](C)O)C(=O)N[C@@H](C(C)C)C(=O)N[C@@H](CC(C)C)C(=O)N1)C(=O)N1CCC[C@H]1C(=O)N[C@@H](CC(C)C)C(=O)N[C@@H](Cc1ccccc1)C(=O)O` (H-[Pra]KKTVL[Dap(N3)]FLKPGFKAALSALIPLF-OH; triazole 1-7), the IC50 (LNCaP C4-2B [2]) was 12.6 µM, the half-life (alpha chymotrypsin) was 2.93 h and the Stabilty [3] was “Stable”. For the same molecule, the HC50 [4] was 70.4 µM, the IC50 (A549) was 21.7 µM and the IC50 (Huh-7 [5]) was 11.3 µM. The half-life [6] was greater than 12 h.

From ChEMBL document CHEMBL4732193, “Design, synthesis, and anti-tumor activities of novel Brevinin-1BYa peptidomimetics” (Bioorg Med Chem Lett, 2021)
